In patent US20030119022A1, “Recognition and cleavage at the DNA major groove” (priority 2001, published 2003):

Key:
[1] = system: 5′-^32p end-labeled 514 bps restriction fragment from pBR322 DNA (Ecor I/ Rsa I); test: Reductive cleavage of 32P-end labeled DNA restriction fragment, PAGE autoradiogram; assay type: biochemical
[2] = NaBH4 reductive activation, hydrolytic cleavage
[3] = NaBH4 reductive activation, piperidine cleavage

| Structure (SMILES) | Cleavage Pattern [1, 2] | Cleavage Pattern [1, 3] | melting point | Cleavage Pattern ([1]; Piperidine cleavage, no reductive activation (sequencing reference lane)) |
| --- | --- | --- | --- | --- |
| CC(=O)OC1CCc2c1[nH]c1c2C(=O)C=C(N2CC2)C1=O (stereo not drawn) [reference compound] | No Significant Cleavage | G & T of 3′-GT- 5′ | – | – |
| COC1=CC(=O)c2[nH]c(COC(C)=O)c(COC(C)=O)c2C1=O [Compound 1d, 2,3-Diacetoxymethyl-5-methoxyindol-4,7-dione] | recognition occurs only at 3′-GGA-5′ with phosphate alkylation and cleavage occurring largely at the center G base | GT (5′ | 179 to 181 °C | – |
| COC1=CC(=O)c2[nH]c3c(c2C1=O)CCC3OC(C)=O (stereo not drawn) [Compound 2b, 3-Acetoxy-7-methoxy-1,2,3,4-tetrahydrocyclopent[b]indole-5,8-dione] | No Significant | G & T of 3′-GT- | 173 to 175 °C | – |
| CC(=O)OCc1[nH]c2c(c1C)C(=O)C(N1CC1)=CC2=O [reference compound] | Weak Cleavage | Some G & A | – | – |
| COS(=O)(=O)OC [DMS, reference compound] | – | – | – | G & A |
| CCOC(=O)c1[nH]c2c(c1COC(C)=O)C(=O)C(OC)=CC2=O | – | – | 194 to 196 °C | – |
